Here are results for ten compounds from patent US10758522B2, “Small molecule analogs of the nemo binding peptide” (THE SCRIPPS RESEARCH INSTITUTE, priority 2015, dated 2020).

One data set deals with NF-κB target genes. Put plainly: qRT-PCR of NF-κB target genes in LPS-stimulated Raw 264.7 cells. The class given is cell-based, mouse. The conditions noted are these: for transcription of NF-κB target genes (COX2, IL-6, IL-1β, TNF-α, IκBα, iNOS): Raw 264.7, 1 ug/ml LPS 2 hr, mimetics 50 μM, IKKi VII 2 μM, 8K-NBD 400 μM. Here is the method: Effect of the NBD mimetics on expression of NF-kB regulated genes in the Raw mouse macrophage cell line. Treatment of the Raw cells with the indicated drugs prior to addition of LPS reduced NF-kB-mediated gene expression as measured by RT-PCR.
To determine whether the inhibitory effect of the mimetics is TNF-α-dependent, LPS-mediated NF-κB activation via TLR4 was examined to determine a broader inhibitory effect of the novel NBD mimetics. NF-κB was stimulated in Raw 264.7 by 1 ug/ml of LPS for 2 hr and genes transcriptionally regulated by NF-κB were determined by qRT-PCR analysis. Both an IKK active site inhibitor IKKi VII (2 μM) and the 8K-NBD peptide (400 μM) were included as positive controls and the expression of COX2, IL-6, IL-1β, TNF-α, IκBα and iNOS were assessed.
Raw 264.7 cells were treated with a 50 μM solution of the SR compound for 30 minutes, and then the mRNA was harvested 2 hours after addition of 1 μg/mL LPS.
Snap frozen tissues were preserved in RNAlater RNA stabilization solution (ThermoFisher) before processed. Total RNA was extracted from cells or tissues using TRIZOL reagent (Life Technologies) and 1500 ng of messenger RNA (mRNA) was subjected to synthesize complementary DNA (cDNA) using SuperScript VILO cDNA synthesis kit. qRT-PCR was performed in a StepOnePlus Real-Time PCR system using Platinum SYBR Green qPCR SuperMix-UDG (ThermoFisher). Target gene expression was calculated using the comparative CT method (ΔΔCT) and normalized to an internal control gene Actb (β-actin). Primers used are as follows: Ptgs2 (COX-2) forward: […]; Ptgs2 (COX-2) reverse: […]; Nfkbia (IκBα) forward: […]; Nfkbia (IκBα) reverse: […]; Il1b (IL-1β) forward: […]; Il1b (IL-1β) reverse: […]; Nos2 (iNOS) forward: […]; Nos2 (iNOS) reverse: […]; Tnf (TNF) forward: […]; Tnf (TNF) reverse: […]; Il6 (IL-6) forward: […]; Il6 (IL-6) reverse: […]. Actb (β-actin) forward: […]; Actb (β-actin) reverse: […];

The subject of data set [1] is embryonic fibroblasts from Ercc1−/− mice. In words: Senescence rescue assay in ERCC1-deficient murine embryonic fibroblasts (SA-ß-gal). The class given is cell-based, mouse. To be noted: oxidative stress conditions (20% O2). The source says:
In an attempt to identify new drugs able to improve healthspan, we have developed an assay for screening for drugs able to rescue primary “aged” fibroblasts from senescence. This assay uses murine embryonic fibroblasts (MEFs) from mice with accelerated aging due to a deficiency in an important DNA repair pathway, ERCC1-XPF. These MEFs undergo rapid senescence in culture, especially when grown under the high oxygen conditions that confers oxidative stress (FIGS. 18 and 19).

In a further data set the test system is IL-6. Put plainly: IL-6 ELISA in LPS-stimulated Raw 264.7 cells. The class given is cell-based, mouse. To be noted: Raw 264.7, 1 ug/ml LPS, supernatant at 24 hr. As for the experimental part:
To confirm the qRT-PCR result, LPS-mediated IL-6 production was analyzed in Raw 264.7 cells by ELISA. […] Moreover, SR11481 appears to work more efficiently at a lower concentration around 25 μM. Taken together, four lead compounds were identified through seven rounds of optimization and modification.
Enzyme-Linked Immunosorbent Assay (ELISA). Raw264.7 cells were grown in a 96-well plate and pretreated with vehicle, IKKi VII (2 uM) and small molecules (at indicated concentration) for 1 hr, followed by the stimulation with 1 ug/ml of LPS. Supernatant was collected 24 hr later for ELISA analysis. IL-6 concentration was measured using a mouse IL-6 ELISA kit (BD) according to the manufacturer's instructions.

Data set [2] is described as follows: Pharmacokinetics study after ip injection. The conditions noted are these: mice, 10 mg/kg ip, 2 hr. It counts as in vivo. As for the experimental part: To determine the stability of the NBD mimetics in vivo, the pharmacokinetics of the compounds was determined in serum following ip injection.
The pharmacokinetic profiles of the NBD mimetics were determined in male C57BL/6J mice (n=3). The drugs were formulated in 10:10:80 of DMSO:Tween 80:water and were dosed by intraperitoneal injection at a final dose of 10 mg/kg. Blood, brain, muscle, spleen, and liver were collected 2 hr post-treatment and were analyzed by mass spectrometry by following the protocol described in ref. 215 (42).

The test system of the next data set is IKKβ-NEMO interaction. In words: Immunoprecipitation of NEMO and IKKβ immunoblot in Raw 264.7 macrophages and HEK293 cells. The class given is cell-based. To be noted: Raw 264.7 macrophages / HEK293; mimetics 100 μM, 8K-NBD 400 μM. As for the experimental part: The NBD mimetics reduce the interaction between IKKg (NEMO) and IKKß. The indicated concentrations of the drugs were added to HEK 293 or Raw 264.7 cells and cell extracts prepared 30 minutes later. Following immunoprecipitation (IP) of NEMO, the Western was probed for IKKß.
After treatment with the mimetics or NBD peptide, NEMO was immunoprecipitated by an anti-NEMO antibody and IKKβ was immunoblotted to determine the binding of IKKβ to NEMO.
HEK293 or Raw264.7 cells were seeded at 1×10^6 cells/well in 6-well plates and treated with vehicle, small molecule or NBD peptide for indicated time. Cells were lysed in NP-40 lysis buffer supplemented with 1× protease inhibitor cocktails (sigma). Protein was immunoprecipitated by incubating 150 μg of lysate with 1 μg of anti-NEMO antibody (Santa Cruz) on a rotating shaker at 4° C. for 4 hrs, followed by incubation with 20 ul of Protein A agarose beads (ThermoFisher) for 1 hr. Beads were washed in NP40 buffer 3 times and PBS once. Protein was then denatured in SDS-sample buffer and resolved by MINI-PROTEAN TGX 4-15% SDS-PAGE. Anti-IKKβ (1:1000 CST) was used to assess binding of IKKβ to NEMO and anti-NEMO (1:1000 CST) or IgG were used to as a loading control.
A general note: A western blot detects proteins with antibodies after separation by electrophoresis.

Data set [3] has as its target T1, IKK complex (IKKß, IKKα and NEMO) (Homo sapiens, UniProt Q9Y6K9).
T1 construct: analyzed by Western blot for the level of co-precipitated NEMO; endogenous in cells; host or cells: 293 (HEK293) cells
Put plainly: Co-immunoprecipitation of NEMO with IKKß in 293 cells. The class given is cell-based. To be noted: Zinc-5 at 4 hours, Zinc-13 at 1 hour, NBD peptide at 4 hours. The text has this:
FIG. 8 is a bar graph showing the inhibition of TNFα by NBDA-1 (Zinc-13). […] In addition, we have examined the ability of the compounds to disrupt the IKK complex, comprised of IKKß, IKKα and NEMO.
A non-functional, related compound Zinc-7 had no effect.

In another data set the test system is NF-κB. Put plainly: Firefly luciferase NF-κB reporter assay in TNF-α-stimulated HEK293 cells. The class given is cell-based. The conditions noted are these: 293 NF-κB luciferase reporter cells, 10 ng/ml TNF-α; compound 12909780 at 100 μM. Here is the method: This model was used to screen a subset of the drug-like ZINC 8.0 database set (˜900,000 compounds) (Irwin et al., 2005). We were able to identify 161 hits that matched at least 6 features out of eight of the pharmacophore model. […] Two compounds termed NBDA-1 (Zinc-13) and NBDA-2 (Zinc-5), successfully passed these filters (See FIG. 4) and were purchased for biological testing. The compounds were then tested for ability to inhibit TNF-alpha-mediated induction of NF-κB activity in a 293 cells stably modified with a NF-κB luciferase reporter.
The activation of NF-κB was then quantitated by measuring the level of luciferase activity. […] Also, protein extracts were prepared from the same cells and the level of phospho-IkB determined, a marker of IKK activity.
To test if the small molecules identified by the in silico screen inhibit NF-κB activation, a HEK293 cell line stably expressing a luciferase reporter driven by a synthetic, NF-κB-dependent promoter was utilized. To induce NF-κB activation, cells were treated with 10 ng/ml of TNF-α and harvested three hours post-treatment for analysis of luciferase activity. […] To determine if compound 12909780 inhibited NF-κB in a dose dependent manner, concentrations were tested at 0, 6.25, 25, 50 and 100 μM.
HEK293 cells stably transfected with luciferase reporter plasmid driven by NF-κB were seeded in 96-well plate in triplicate and pretreated with DMSO or varying small molecules at indicated concentration for 30 min, followed by the stimulation of 10 ng/ml of TNFα for 3 hr. Cell were washed with PBS once and harvested in passive lysis buffer. Luciferase assay (Promega) was performed using a luminometer according to the manufacturer's instructions.

The next data set deals with NEMO (Homo sapiens, UniProt Q9Y6K9). The conditions noted are these: cited from earlier work; for IC50: read-out: IC50, affinity to NEMO.
Chain of NEMO (Q9Y6K9 whole entry, species assumed): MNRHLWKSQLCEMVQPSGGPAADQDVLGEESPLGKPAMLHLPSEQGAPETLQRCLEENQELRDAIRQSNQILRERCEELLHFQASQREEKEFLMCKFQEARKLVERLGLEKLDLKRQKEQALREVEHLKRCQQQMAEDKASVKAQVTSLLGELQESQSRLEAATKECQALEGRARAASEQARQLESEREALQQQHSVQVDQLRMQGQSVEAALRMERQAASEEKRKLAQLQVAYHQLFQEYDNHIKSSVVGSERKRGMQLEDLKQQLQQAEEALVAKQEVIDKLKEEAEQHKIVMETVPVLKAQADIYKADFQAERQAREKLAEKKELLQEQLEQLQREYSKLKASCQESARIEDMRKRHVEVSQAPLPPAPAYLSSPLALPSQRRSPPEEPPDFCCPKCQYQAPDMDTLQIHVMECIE

T1 sequence (Q9Y6K9 whole entry, one chain of several): as the sequence (Q9Y6K9 whole entry, species assumed) above

For the compound `O=C(c1ccc(Nc2nccc(-c3cc4ccccc4s3)n2)cc1)N1CCC(N2CCCC2)CC1` [IKKi VII, reference compound], the “transcription of NF-κB target genes (COX2, IL-6, IL-1β, TNF-α, IκBα, iNOS)” value (shortened to “transcription of NF-κB target genes”) in the data set on NF-κB target genes is on record as “able to inhibit most NF-κB target gene expression”. Also, the iNOS expression entry with NF-κB target genes (Raw 264.7, LPS) is recorded as “failed to downregulate iNOS expression”.
`CC(Cc1ccc(O)c(O)c1)C(C)Cc1ccc(O)c(O)c1` (centres unmarked) [NDGA]: in data set [1], the “senescence (SA-ß-gal staining) of ERCC1-deficient MEFs” value was “most effective for rescuing senescence”.
`O=C(COC(=O)Cc1cc(F)cc(F)c1)Nc1ccc(Cl)cn1` [SR11481, 2-((5-chloropyridin-2-yl)amino)-2-oxoethyl 2-(3,5-difluorophenyl)acetate]: in the data set with IL-6, the “LPS-mediated mIL-6 production (ELISA)” value is “reduction in the accumulation of IL-6 protein at 24 hr”. The “transcription of NF-κB target genes” value in the data set on NF-κB target genes is “failed to suppress all NF-κB target genes”. The “stability in serum after ip injection” value in data set [2] was “extremely unstable with undetectable levels at 2 hr”. The “disruption of IKKβ-NEMO interaction (NEMO IP, IKKβ blot)” value in the data set on IKKβ-NEMO interaction was “disruption of the association between NEMO and IKK-β”.
Consider `O=C(COCCc1cc(F)cc(F)c1)Nc1ccc(Cl)cn1` [SR12454, N-(5-chloropyridin-2-yl)-2-(3,5-difluorophenethoxy)acetamide], for which the “LPS-mediated mIL-6 production (ELISA)” value with IL-6 is “decreasing by half at 25 μM”. In addition, in the data set on NF-κB target genes, the “transcription of NF-κB target genes” value was “significantly downregulate the transcription of all NF-κB target genes tested”. In data set [2], the “stability in serum after ip injection” value was “moderate stability”. The “disruption of IKKβ-NEMO interaction (NEMO IP, IKKβ blot)” value with IKKβ-NEMO interaction was “disruption of the association between NEMO and IKK-β”.
In the case of `O=C(COC(=O)c1c2ccccc2cc2ccccc12)Nc1ncc(C(F)(F)F)cc1Cl` [ZINC7, anthracene-9-carboxylic-acid-[2-[[3-chloro-5-(trifluoromethyl)-2-pyridyl]amino]-2-keto-ethyl]-ester], the “level of NEMO co-immunoprecipitated with IKKß” value in data set [3] is recorded as “had no effect”.
Turning to `O=C(COC(=O)Cc1ccccc1)Nc1ncc(Cl)cc1Cl` [ZINC9, 2-phenylacetic-acid-[2-[(3,5-dichloro-2-pyridyl)amino]-2-keto-ethyl]-ester], the “inhibition of TNF-α-induced NF-κB activation (luciferase reporter), in words” value in the data set on NF-κB was “lowered NF-κB activity robustly”.
In the case of `CC(=O)Oc1ccccc1C(=O)O` [aspirin], in data set [1], the “senescence (SA-ß-gal staining) of ERCC1-deficient MEFs” value is listed as “most effective for rescuing senescence”.
Regarding “IKKβ-derived peptide (701-746): longer IKKβ-derived peptide (701-746) containing all residues and domains (PAKKSEELVAEAHNLCTLLENAIQDTVREQDQSFTALDWSWLQTEE; UniProt O14920 701-746, looked up, fragment)”, the IC50 in the data set with NEMO is around 0.01 µM.
“mutated 11-mer NBD peptide (735-745): 11-mer NBD peptide with substitutions of arginine for W741 and W739 (TALDRSRLQTE; NEMO binding domain; UniProt O14920 735-745, looked up, variant W739R W741R)”: the “binding to NEMO” value with NEMO (W741 and W739 substituted by arginine) was “unable to bind to NEMO”.
For “traditional 11 amino acid NEMO binding domain peptide of IKKβ, amino acids 735-745, TALDWSWLQTE [11-mer NBD peptide]”, the concentration for half-maximal inhibition (IC50) with NEMO is around 100 µM.

The IC50 is the midpoint of a concentration-inhibition curve.
